Assays:
TrkA-Fc = target: T1, TrkA-Fc (Homo sapiens, UniProt P04629); test: Competitive ELISA, TrkA-Fc binding to immobilized NGF (selectivity control)
T1 construct: purchased R&D
Method: The effect of compounds I-B and LM-24 on the binding between NGF and p75 was tested in competitive ELISA assays, where the antagonists prevent soluble p75 from binding to immobilized NGF. The selectivity of antagonism was evaluated by lack of effect upon NGF-TrkA or lack of effect between NGF and anti-NGF monoclonal antibody (mAb) NGF30 interactions (FIG. 1A).
Competitive ELISAs were performed as described (Saragovi et al., 1998). The procedure immobilized 50 ng/well NGF, or pro-NGF (Alomone Labs, Israel) onto polystyrene 96-well microtest plates, with washing and blocking with binding buffer (BB; phosphate buffered saline containing 0.5% bovine serum albumin). The following primary reagents in BB were added: recombinant chimeric p75-Fc or recombinant chimeric TrkA-Fc (R&D), or anti-NGF mAb NGF30 (Saragovi et al., 1998); each at 50 nM. The competitors I-B and the other test compounds (or control LM-24) were added at the indicated concentrations, and the plates were incubated for 45 minutes. After washing 3× in BB, HRP-conjugated secondary reagents (Sigma) were added for 30 min (goat anti-human Fc for p75-Fc and for TrkA-Fc; and goat anti-rat Ab for NGF30 mAb), and then wells were washed 3× in BB and 1× in PBS. Peroxidase activity was determined colorimetrically using the substrate TMB One Solution (Promega). The reaction was stopped with 0.5 N H2SO4 and the plates were read at 450 nm (Benchmark Plus, Bio-Rad). Assays were repeated n>4 times, with replicates of 4 wells each assay. […] Wells with no NGF immobilized but with all other reagents added were treated as background (<15% of maximal signals) and standardized to 0% binding.

[1] = system: NGI (NFL-GCL-IPL) retinal layers; test: ON axotomy model, retinal NGI thickness by FD-OCT; format: in vivo; conditions: rat ON axotomy, 3 μg intravitreal immediately after axotomy, days 11 and 14, versus untreated axotomy
Method: Antagonists of p75NTR prevented loss of retinal structure after ON axotomy. The relative in vivo efficacy for I-B and LM-24 was tested using the ON axotomy model. A quantitative non-invasive structural endpoint, FD-OCT, was performed in the same animal over time to measure the integrity of the neuronal layers. We quantified the axons and fibers of the RGCs that contribute to the thickness of the Nerve Fiber Layer (NFL), the Ganglion Cell Layer (GCL), and the Inner Plexiform Layer (IPL), herein termed NGI. Maintenance of NGI structure correlates with RGC health (Bai et al., 2010a).
Wistar rats (female, 250-300 g; Charles River) were kept in a 12 hours dark-light cycle with food and water ad libitum. All animal manipulations were performed between 9 AM and 12 AM. […]
FD-OCT is a non-invasive method that allows time-kinetic studies in the same animal. […] In each B-scan the thickness of the NFL-GCL-IPL (NGI) was measured at four adjacent points at a distance 1.5 mm from the ON head. […]
For studies in the glaucoma animal model the injections were performed at days 14 and 21 after cauterization. […] Thus, in this paradigm there is pre-existing damage for 14 days before treatment (measured at ˜8% RGC death (Shi et al., 2007; Shi et al., 2008)); and the treatments require long-lived efficacy in the constant presence of retinal stress due to high IOP. […]

TNF-α = test: Glaucoma model, retinal TNF-α by western blot; format: in vivo, rat; conditions: intravitreal injection at glaucoma day 14, measured 3 and 5 days later
Method: After 14-days of glaucoma eyes were injected intravitreally with p75NTR antagonists, and the levels of TNF-α and α2M were measured three days later (e.g. day 17 of glaucoma) and five days later (e.g. day 19 of glaucoma) (FIG. 3A).
Both retinas of each animal were detergent solubilized, and studied in independent gels standardized to loading control. The ratio of the glaucoma eye ±treatment versus the normal contralateral eye was calculated, and results were averaged ±sem, n=3 animals per group. In glaucoma, all drug treatments were done at day 14 of hypertension. In one group the retinas were harvested at day 17 of glaucoma (3 days after intraocular injection) and in the other group the retinas were harvested at day 19 of glaucoma (5 days after intraocular injection). Normal eyes treated with NGF-A were collected in the indicated days. After SDS-PAGE and western transfer, membranes were immunoblotted with rabbit polyclonal antibodies against TNF-α (Preprotech) or α2M (Santa Cruz) at a 1:3000 dilution. Goat anti-rabbit secondary antibodies conjugated to horseradish peroxidase (Sigma) were used at a 1:10,000 dilution. Loading was controlled with antibodies to β-actin (Sigma). For digital quantification, membranes were scanned and analyzed using ImageJ software.

T1 sequence (P04629 33-423 limits assumed): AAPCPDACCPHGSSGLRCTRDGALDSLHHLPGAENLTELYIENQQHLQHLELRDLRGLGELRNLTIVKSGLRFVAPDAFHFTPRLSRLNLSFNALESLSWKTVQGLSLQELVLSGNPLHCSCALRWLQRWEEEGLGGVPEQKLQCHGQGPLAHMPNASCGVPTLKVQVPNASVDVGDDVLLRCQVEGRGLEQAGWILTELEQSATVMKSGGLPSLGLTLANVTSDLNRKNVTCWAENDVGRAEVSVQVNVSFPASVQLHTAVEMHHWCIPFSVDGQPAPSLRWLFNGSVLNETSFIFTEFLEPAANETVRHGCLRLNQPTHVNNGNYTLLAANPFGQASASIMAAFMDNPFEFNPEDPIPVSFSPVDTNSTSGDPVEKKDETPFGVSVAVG

What does the source list for `CC(C)NC(=O)N(C(=O)Cn1cnc2c1c(=O)n(C)c(=O)n2C)C(C)C` [I-B, 1,3-Diisopropyl-1-[2-(1,3-dimethyl-2,6-dioxo-1,2,3,6-tetrahydro-purin-7-yl)-acetyl]-urea]?
TrkA-Fc binding AVERAGE (TrkA-Fc; binding to immobilized NGF, no cpd = 100%, TrkA-Fc 50 nM, as described for FIG. 1A): 107%; effect on binding of TrkA to NGF (TrkA-Fc; competitive ELISA, FIG. 1A, compound at 30 μM): did not interfere; preservation of NGI thickness (FD-OCT) [1]: significant preservation of the NGI thickness; TNF-α level in glaucomatous retina, fold-change versus normal retina (TNF-α): time-dependent inhibition

Source: US9296691B2, “Inhibitors of p75 receptor and their uses” (Horacio Uri Saragovi, priority 2010, dated 2016)
